Assay results: patent publication US20040053407A1, “Method for in vitro culture of ovarian follicles” (priority 2000, published 2004)

Tested on: secondary follicles (folliculogenesis)
Assay: In vitro follicle culture testing the influence of taxol on folliculogenesis and oocyte maturation
Assay type: cell-based, mouse
Conditions: secondary follicles scored after 13 days
Source text: Ovarian tissue is isolated from 12 to 14 days old F1 hybrids C57Bl/j6×CBAca mice and kept in a culture dish comprising Leibovitz's L15 medium with GlutaMAX I™ (Gibco BRL 31415-029) with 10% HIA FBS (Heat Inactivated Foetal Bovine Serum) and 0.1% penicillin-streptomycin-mix (Gibco BRL 3032908). The ovaries have to be freed of oviduct and fat.
Not all follicles in suspension from example 1 are suitable for follicle culture. To make sure that all follicles grow at approximately the same rate, the selected follicles should have a similar diameter. In this specific case, a diameter of between 100 and 130 μm is suitable and points to development of the follicle up to the early preantral (secondary) stage. […] FIG. 2b. Said follicles further comprise theca-interstitial cells 17, a basal membrane 19 and a zona pellucida 21. Follicles are observed under a stereomicroscope and measured under an inverted microscope. Suitable follicles are picked up using suitably arranged pasteur pipettes and transferred to a cryovial (for stocking, see example 3) or to a culture plate (for follicle culture, see example 4).
When starting from secondary follicles, one can start immediately with culture using the second medium. This medium will promote adhesion to the culture recipient surface. Culture medium is refreshed every four days. On day 12, the culture medium is refreshed using the third medium in stead of the second. This medium will cause the release of a mucified oocyte-cumulus complex from the follicle overnight, while the oocyte finalises maturation.
Cultures are done in 75 μl of culture medium. When refreshing medium, 30 μl of used medium is removed and 30 μl of fresh medium is added. Schematically, both procedures can be summarised as follows:
The same method is used as in example 4. Secondary follicles are used. […] All media used in the culture steps are constituted as follows:
The culture medium is refreshed every 4 days by removing 30 μl and addition of 30 μl of fresh medium.
After 13 days, follicles are scored on survival, mucification, presence of polar body (PB), and oocyte diameter.

[1] = Taxol 0.01 nM in all media (plates 3+4)
[2] = Taxol 0.1 nM in all media (plates 5+6)
[3] = Taxol 1 nM in all media (plates 7+8)
[4] = Taxol 10 nM in all media (plate 9)

Mucification mean [1]: 100%
PB (presence of polar body) mean [1]: 75%
Mucification mean [2]: 96%
PB (presence of polar body) mean [2]: 75%
Mucification mean [3]: 96%
PB (presence of polar body) mean [3]: 55%
Mucification mean [4]: 0
PB (presence of polar body) mean [4]: 0
SMILES: CC(=O)O[C@H]1C(=O)[C@@]2(C)[C@H]([C@H](OC(=O)c3ccccc3)[C@]3(O)C[C@H](OC(=O)[C@H](O)[C@@H](NC(=O)c4ccccc4)c4ccccc4)C(C)=C1C3(C)C)[C@]1(OC(C)=O)CO[C@@H]1C[C@@H]2O [Taxol]
Survival mean [1]: 87%
Survival mean [2]: 100%
Survival mean [3]: 92%
Survival mean [4]: 0%
